The conditions of the data set: 298 K; 101.33 kPa; Crystal; Buoyancy - hydrostatic balance.

± gives the expanded uncertainty stated by the source.

Usually mass density stands for the mass of a sample divided by its volume. As for `[Al]` [aluminum], the mass density came out at 2656 ± 310 kg/m3.

As to `[Mo]` [molybdenum], the mass density stood at 9999 ± 600 kg/m3.

Values taken from the NIST ThermoML archive (doi:10.1016/j.tca.2018.01.022).
